Data as given in article PMC12409542, “Synthesis and Computational Evaluation of N‑Acetyl-Derived Schiff Bases Incorporating 1,2,4-Triazoles for Dual Inhibition of Prostate Cancer Cells and Carbonic Anhydrases” (ACS Omega, 2025).

How the values were obtained:
DU145 cells = assay: Cell viability assay (CVDK-8), DU145 cells; format: cell-based, human; details: for effect on viability of cancer cells (in words): DU145, 1, 10 and 100 μM, 24 h; for IC50: Homo sapiens, DU-145, viability of DU145 cells, 24 h treatment, CVDK-8; for selectivity indices (SI) PNT1a IC50/DU145 IC50: ratio PNT1a IC50/DU145 IC50, 24 h
Experimental: (§1) In this research, the inhibitory effects of the compounds under investigation on cell viability were assessed using two distinct human cell lines: specifically, the DU145 cell line, representative of prostate cancer, and the PNT1a cell line, which serves as a model for normal human prostate epithelial cells. Cells were routinely cultured in RPMI-1640 medium supplemented with 10% fetal bovine serum, 1% penicillin/streptomycin (Gibco), and 1% L-glutamine. All cells were maintained in a 5% CO2 humidified incubator at 37 °C.
(§2) Effects of all compounds synthesized in this study on the viability of PNT1a and DU145 cells were analyzed using the Cell Viability Detection Kit-8 (CVDK-8, Ecotech Biotechnology, Erzurum, Turkey). In brief, cells were seeded at a concentration of 3 × 10^3 cells per well within 100 μL medium in 96 well plates. Then, cells were treated with compounds at concentrations of […] for 24 h. After treatment with the test compounds, the medium was removed and fresh RPMI-1640 medium containing 1/10 CVDK- 8 reagent was added to each well, and plates were incubated for 3 h at 37 °C protected from light. After the incubation period, optical densities were measured using Epoch spectrophotometer at 450 nm. For cell culture, experiments were performed in triplicate, and data were analyzed by t tests.

PNT1a cells = assay: Cell viability assay (CVDK-8), PNT1a cells; format: cell-based; details: Homo sapiens, viability of PNT1a normal prostate epithelial cells, 24 h treatment
Experimental: as §1, §2

hCA I = hCA I (Homo sapiens, UniProt P00915); assay: hCA I inhibition, spectrophotometric esterase method (p-nitrophenyl acetate); format: biochemical; details: p-nitrophenyl acetate substrate, 348 nm; for Ki: read-out: K i (μM) hCA I
hCA I, sequence (P00915 whole entry): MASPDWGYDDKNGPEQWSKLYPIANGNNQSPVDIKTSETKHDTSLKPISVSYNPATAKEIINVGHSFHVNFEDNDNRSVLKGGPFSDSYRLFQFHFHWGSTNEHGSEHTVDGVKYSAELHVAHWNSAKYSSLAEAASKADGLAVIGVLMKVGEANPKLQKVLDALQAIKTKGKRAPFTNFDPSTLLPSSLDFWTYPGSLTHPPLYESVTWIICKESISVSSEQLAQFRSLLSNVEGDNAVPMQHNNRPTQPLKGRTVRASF
Experimental: (§3) In this study, Sepharose-4B L-Tyrosine sulfanilamide affinity chromatography was employed to purify both CA isozymes in a single phase. A previous process was used to manufacture the column chemical material for affinity chromatography containing Sepharose-4B-L-Tyrosine-Sulfanilamide. As previously shown, the protein molecules’ flow in the column eluates was measured spectrophotometrically at 280 nm. […] The substrate used, p-nitrophenyl acetate, was enzymatically converted by both isoenzymes into p-nitrophenolate ions.

hCA II = hCA II (Homo sapiens, UniProt P00918); assay: hCA II inhibition, spectrophotometric esterase method (p-nitrophenyl acetate); format: biochemical; details: p-nitrophenyl acetate substrate, 348 nm; for Ki: read-out: K i (μM) hCA II
Experimental: as §3

Row | Compound | effect on viability of cancer cells (in words) (DU145 cells) | IC50 (DU145 cells) | selectivity indices (SI) PNT1a IC50/DU145 IC50 (DU145 cells) | IC50 (PNT1a cells) | IC50 (hCA I) | Ki (hCA I) | IC50 (hCA II) | Ki (hCA II)
1 | CC(=O)n1nc(C)n(N=Cc2cccc(OS(=O)(=O)c3ccc(C)cc3)c2)c1=O [6a, 3-[((1-Acetyl-3-methyl-5-oxo-1,5-dihydro-4H-1,2,4-triazol-4-yl)-imino)-methyl]-phenyl-4-methylbenzenesulfonate] | decreased the viability of cancer cells in a dose-dependent manner | 73.2 ± 11.5 µM | 6.74 | > 100 µM | 11.4 µM | 14 ± 1.15 µM | 15.3 µM | 19.7 ± 2.48 µM
2 | CCc1nn(C(C)=O)c(=O)n1N=Cc1cccc(OS(=O)(=O)c2ccc(C)cc2)c1 [6b, 3-[((1-Acetyl-3-ethyl-5-oxo-1,5-dihydro-4H-1,2,4-triazol-4-yl)-imino)-methyl]-phenyl-4-methylbenzenesulfonate] |  |  |  |  | 13.7 µM | 16.7 ± 2.14 µM | 18.4 µM | 21.9 ± 3.48 µM
3 | CC(=O)n1nc(Cc2ccccc2)n(N=Cc2cccc(OS(=O)(=O)c3ccc(C)cc3)c2)c1=O [6c, 3-[((1-Acetyl-3-benzyl-5-oxo-1,5-dihydro-4H-1,2,4-triazol-4-yl)-imino)-methyl]-phenyl-4-methylbenzenesulfonate] | did not suppress the viability of cancer cells in low concentrations | > 100 µM | 1.22 | > 100 µM | 10.2 µM | 13.1 ± 1.02 µM | 14.5 µM | 17.3 ± 2.41 µM
4 | CC(=O)n1nc(Cc2ccc(C)cc2)n(N=Cc2cccc(OS(=O)(=O)c3ccc(C)cc3)c2)c1=O [6d, 3-[((1-Acetyl-3-p-methylbenzyl-5-oxo-1,5-dihydro-4H-1,2,4-triazol-4-yl)-imino)-methyl]-phenyl-4-methylbenzenesulfonate] | did not suppress the viability of cancer cells in low concentrations | 49.8 ± 11.1 µM | 2.28 | > 100 µM | 7.12 µM | 9.26 ± 0.88 µM | 10.6 µM | 11.7 ± 1.01 µM
5 | CC(=O)n1nc(Cc2ccc(Cl)cc2)n(N=Cc2cccc(OS(=O)(=O)c3ccc(C)cc3)c2)c1=O [6e, 3-[((1-Acetyl-3-p-chlorobenzyl-5-oxo-1,5-dihydro-4H-1,2,4-triazol-4-yl)-imino)-methyl]-phenyl-4-methylbenzenesulfonate] | decreased the viability of cancer cells in a dose-dependent manner | > 100 µM | 5.23 | > 100 µM | 12.3 µM | 14.2 ± 1.1 µM | 16.8 µM | 18.1 ± 2.47 µM
